Assay results: patent US10800791B2, “Triazole ACC inhibitors and uses thereof” (Gilead Apollo, LLC, priority 2015, dated 2020)
Converted amounts (≈) assume the structure as drawn. Read-outs that look alike come from different tables or passages of the source.

Key:
[1] = system: Septoria tritici (St); assay: Growth inhibition assay of fungal pathogens, St; assay type: cell-based; conditions: Zymoseptoria tritici, 48 h
Summary of the method: (§1)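 Percent inhibition derived at 48 hours from OD600 and visual scores versus 2% DMSO control, with media+DMSO blank as background. Spore inocula in 17% V8 medium were sized from 48 h growth curves; compounds tested at final 50/10/2 or 2/0.4/0.08 ppm.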

[2] = system: Diplodia maydis (Dm); assay: Growth inhibition assay of fungal pathogens, Dm; assay type: cell-based; conditions: Stenocarpella maydis, 48 h
Summary of the method: as §1

[3] = target: human (hACC2) (Homo sapiens, UniProt O00763); assay: In vitro ACC inhibition assay (ADP-Glo), hACC2; assay type: biochemical; conditions: 5 nM ACC2, 20 μM ATP, 20 μM acetyl-CoA
Chain of human (hACC2) (O00763 whole entry): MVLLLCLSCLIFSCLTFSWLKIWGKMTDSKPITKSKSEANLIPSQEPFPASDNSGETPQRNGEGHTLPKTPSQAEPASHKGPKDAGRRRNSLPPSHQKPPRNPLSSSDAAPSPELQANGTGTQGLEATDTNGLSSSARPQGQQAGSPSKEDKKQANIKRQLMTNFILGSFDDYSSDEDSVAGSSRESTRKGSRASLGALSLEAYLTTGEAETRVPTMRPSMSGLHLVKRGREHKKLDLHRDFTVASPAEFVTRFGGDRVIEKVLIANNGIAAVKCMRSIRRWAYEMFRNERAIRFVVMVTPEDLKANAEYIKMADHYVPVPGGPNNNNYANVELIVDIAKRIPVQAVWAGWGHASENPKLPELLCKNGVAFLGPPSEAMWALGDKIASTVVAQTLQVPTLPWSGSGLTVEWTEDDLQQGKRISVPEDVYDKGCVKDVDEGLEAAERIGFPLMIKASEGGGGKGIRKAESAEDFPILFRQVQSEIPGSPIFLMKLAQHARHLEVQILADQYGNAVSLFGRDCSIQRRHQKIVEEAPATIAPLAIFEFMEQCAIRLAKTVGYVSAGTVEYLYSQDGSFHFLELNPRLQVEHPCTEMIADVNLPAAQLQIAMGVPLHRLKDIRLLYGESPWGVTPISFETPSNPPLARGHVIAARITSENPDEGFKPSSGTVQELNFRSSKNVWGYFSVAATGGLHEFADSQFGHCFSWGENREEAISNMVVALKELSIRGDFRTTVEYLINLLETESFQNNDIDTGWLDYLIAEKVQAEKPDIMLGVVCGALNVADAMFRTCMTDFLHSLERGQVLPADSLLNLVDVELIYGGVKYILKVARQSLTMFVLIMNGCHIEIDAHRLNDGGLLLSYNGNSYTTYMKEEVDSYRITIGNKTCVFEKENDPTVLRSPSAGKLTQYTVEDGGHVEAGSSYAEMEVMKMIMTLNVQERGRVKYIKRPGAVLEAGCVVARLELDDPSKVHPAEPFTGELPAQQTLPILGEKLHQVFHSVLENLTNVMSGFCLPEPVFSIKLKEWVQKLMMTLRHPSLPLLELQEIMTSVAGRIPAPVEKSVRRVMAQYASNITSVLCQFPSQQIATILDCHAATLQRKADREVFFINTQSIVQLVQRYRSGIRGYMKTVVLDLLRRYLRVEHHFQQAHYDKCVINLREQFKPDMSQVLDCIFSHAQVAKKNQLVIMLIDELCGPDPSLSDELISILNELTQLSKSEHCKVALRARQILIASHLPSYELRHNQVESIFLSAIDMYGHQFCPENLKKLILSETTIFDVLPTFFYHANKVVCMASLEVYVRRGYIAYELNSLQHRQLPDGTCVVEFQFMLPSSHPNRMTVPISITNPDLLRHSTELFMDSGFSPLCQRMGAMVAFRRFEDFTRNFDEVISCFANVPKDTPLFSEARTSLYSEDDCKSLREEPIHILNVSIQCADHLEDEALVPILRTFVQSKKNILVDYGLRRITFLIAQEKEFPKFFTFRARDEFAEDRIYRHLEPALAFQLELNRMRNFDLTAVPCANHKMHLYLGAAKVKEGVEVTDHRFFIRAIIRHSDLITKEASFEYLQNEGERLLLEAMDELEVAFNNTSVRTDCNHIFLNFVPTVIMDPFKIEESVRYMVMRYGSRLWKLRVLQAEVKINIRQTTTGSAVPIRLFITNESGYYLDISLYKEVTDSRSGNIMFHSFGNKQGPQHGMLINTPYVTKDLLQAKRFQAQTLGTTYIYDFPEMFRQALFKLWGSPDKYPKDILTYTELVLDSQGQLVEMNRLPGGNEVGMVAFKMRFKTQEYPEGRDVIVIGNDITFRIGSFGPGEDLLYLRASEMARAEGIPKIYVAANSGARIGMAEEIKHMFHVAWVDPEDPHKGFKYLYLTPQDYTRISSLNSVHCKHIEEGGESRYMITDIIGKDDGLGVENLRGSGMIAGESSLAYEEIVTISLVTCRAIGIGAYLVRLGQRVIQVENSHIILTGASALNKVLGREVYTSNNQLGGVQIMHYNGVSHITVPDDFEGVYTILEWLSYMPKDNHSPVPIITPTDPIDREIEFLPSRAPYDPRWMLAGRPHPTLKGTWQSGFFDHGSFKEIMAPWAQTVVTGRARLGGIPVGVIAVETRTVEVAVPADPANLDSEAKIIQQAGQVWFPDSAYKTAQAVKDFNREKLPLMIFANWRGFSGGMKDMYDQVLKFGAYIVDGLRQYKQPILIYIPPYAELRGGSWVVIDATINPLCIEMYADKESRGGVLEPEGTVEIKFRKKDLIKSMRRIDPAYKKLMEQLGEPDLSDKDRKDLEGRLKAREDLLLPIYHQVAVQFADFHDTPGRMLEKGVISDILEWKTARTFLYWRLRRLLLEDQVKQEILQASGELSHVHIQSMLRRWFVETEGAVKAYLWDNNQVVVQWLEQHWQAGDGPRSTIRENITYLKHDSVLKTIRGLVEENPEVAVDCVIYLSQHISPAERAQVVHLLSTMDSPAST
Protocol: The detailed procedure is as follows. […] 10 μL ADP glo reagent was added. […] 20 μL kinase detection reagent was added.

[4] = system: C. parapsilosis; assay: Antifungal Activity Assay (broth microtiter MIC), C. parapsilosis; assay type: cell-based, Candida parapsilosis; conditions: Lodderomyces parapsilosis, ATCC22019, 48 h
Summary of the method: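 CLSI M27-A3 broth microdilution in RPMI 1640+MOPS, final inoculum 2.5×10^3 CFU/mL from overnight Sabouraud cultures grown at 35 °C. MIC read visually at 48 h against growth control.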

[5] = system: Collectotrichum graminicola (Cg); assay: Growth inhibition assay of fungal pathogens, Cg; assay type: cell-based; conditions: 48 h
Summary of the method: as §1

[6] = system: Fusarium moniliforme (Fm); assay: Growth inhibition assay of fungal pathogens, Fm; assay type: cell-based; conditions: for IC90: Fusarium verticillioides, 48 h, read-out: Concentration at 90% Inhibition Fm
Summary of the method: as §1

[7] = system: Rhizoctonia solani (Rs); assay: Growth inhibition assay of fungal pathogens, Rs; assay type: cell-based; conditions: 48 h
[8] = system: Phytophthora capsici (Pc); assay: Growth inhibition assay of fungal pathogens, Pc; assay type: cell-based; conditions: 48 h
Summary of the method: as §1

[9] = system: Fusarium virguliforme (Fv); assay: Growth inhibition assay of fungal pathogens, Fv; assay type: cell-based; conditions: 48 h
Summary of the method: as §1

[10] = Septoria tritici, growth inhibition at 48 hours vs 2% DMSO control, read-out: Concentration at 90% Inhibition St
[11] = Septoria tritici, growth inhibition vs 2% DMSO control at 48 hours, read-out: Concentration at 90% Inhibition St
[12] = Diplodia maydis, growth inhibition at 48 hours vs 2% DMSO control, read-out: Concentration at 90% Inhibition Dm
[13] = Diplodia maydis, growth inhibition vs 2% DMSO control at 48 hours, read-out: Concentration at 90% Inhibition Dm
[14] = Table 3a, ATCC 22019, 3 replicates, MIC recorded at 48 h, read-out: MIC, C. parapsilosis ATCC 22019
[15] = Table 3b (additional results), ATCC 22019, 3 replicates, MIC recorded at 48 h, read-out: MIC, C. parapsilosis ATCC 22019
[16] = Collectotrichum graminicola, growth inhibition at 48 hours vs 2% DMSO control, read-out: Concentration at 90% Inhibition Cg
[17] = Collectotrichum graminicola, growth inhibition vs 2% DMSO control at 48 hours, read-out: Concentration at 90% Inhibition Cg
[18] = Fusarium moniliforme, growth inhibition at 48 hours vs 2% DMSO control
[19] = Fusarium moniliforme, growth inhibition vs 2% DMSO control at 48 hours
[20] = mycelial plugs, growth inhibition at 48 hours vs 2% DMSO control, read-out: Concentration at 90% Inhibition Rs
[21] = mycelial plugs, growth inhibition vs 2% DMSO control at 48 hours, read-out: Concentration at 90% Inhibition Rs
[22] = growth inhibition at 48 hours vs 2% DMSO control, read-out: Concentration at 90% Inhibition Pc
[23] = growth inhibition vs 2% DMSO control at 48 hours, read-out: Concentration at 90% Inhibition Pc
[24] = growth inhibition at 48 hours vs 2% DMSO control, read-out: Concentration at 90% Inhibition Fv
[25] = growth inhibition vs 2% DMSO control at 48 hours, read-out: Concentration at 90% Inhibition Fv
[26] = read-out: Concentration at 90% Inhibition St, Septoria tritici, growth inhibition at 48 hours vs 2% DMSO control
[27] = read-out: Concentration at 90% Inhibition St, Septoria tritici, growth inhibition vs 2% DMSO control at 48 hours
[28] = read-out: Concentration at 90% Inhibition Dm, Diplodia maydis, growth inhibition at 48 hours vs 2% DMSO control
[29] = read-out: Concentration at 90% Inhibition Dm, Diplodia maydis, growth inhibition vs 2% DMSO control at 48 hours
[30] = read-out: MIC, C. parapsilosis ATCC 22019, Table 3a, 3 replicates, MIC recorded at 48 h
[31] = read-out: MIC, C. parapsilosis ATCC 22019, Table 3b (additional results), 3 replicates, MIC recorded at 48 h
[32] = read-out: Concentration at 90% Inhibition Cg, Collectotrichum graminicola, growth inhibition at 48 hours vs 2% DMSO control
[33] = read-out: Concentration at 90% Inhibition Cg, Collectotrichum graminicola, growth inhibition vs 2% DMSO control at 48 hours
[34] = read-out: Concentration at 90% Inhibition Rs, Rhizoctonia solani, mycelial plugs, growth inhibition at 48 hours vs 2% DMSO control
[35] = read-out: Concentration at 90% Inhibition Rs, Rhizoctonia solani, mycelial plugs, growth inhibition vs 2% DMSO control at 48 hours
[36] = read-out: Concentration at 90% Inhibition Pc, Phytophthora capsici, growth inhibition at 48 hours vs 2% DMSO control
[37] = read-out: Concentration at 90% Inhibition Pc, Phytophthora capsici, growth inhibition vs 2% DMSO control at 48 hours
[38] = read-out: Concentration at 90% Inhibition Fv, Fusarium virguliforme, growth inhibition at 48 hours vs 2% DMSO control
[39] = read-out: Concentration at 90% Inhibition Fv, Fusarium virguliforme, growth inhibition vs 2% DMSO control at 48 hours

SMILES	IC50 ([3]; Table 2a) [nM]	IC50 ([3]; Table 2b, additional results) [nM]	MIC [4, 14] [µg/mL]	MIC [4, 15] [µg/mL]	IC90 [1, 10] [µg/mL]	IC90 [1, 11] [µg/mL]	IC90 [2, 12] [µg/mL]	IC90 [2, 13] [µg/mL]	IC90 [5, 16] [µg/mL]	IC90 [5, 17] [µg/mL]	IC90 [6, 18] [µg/mL]	IC90 [6, 19] [µg/mL]	IC90 [7, 20] [µg/mL]	IC90 [7, 21] [µg/mL]	IC90 [8, 22] [µg/mL]	IC90 [8, 23] [µg/mL]	IC90 [9, 24] [µg/mL]	IC90 [9, 25] [µg/mL]	IC90 [1, 26] [µg/mL]	IC90 [1, 27] [µg/mL]	also measured
COc1ccccc1[C@H](Cn1c(=O)n(C(C)(C)C(N)=O)c(=O)c2c(C)c(-n3nccn3)sc21)OC1CCOCC1 [Compound I-14, (R)-2-(1-(2-(2-methoxyphenyl)-2-((tetrahydro-2H-pyran-4-yl)oxy)ethyl)-5-methyl-2,4-dioxo-6-(2H-1,2,3-triazol-2-yl)-1,4-dihydrothieno[2,3-d]pyrimidin-3(2H)-yl)-2-methylpropanamide]	1 to 5	1 to 5	1.1 to 2 (≈ 1.93 to 3.52 µM)	2.01 to 4 (≈ 3.53 to 7.03 µM)	> 50	> 50	10 (≈ 17.6 µM)	> 50	10 (≈ 17.6 µM)	> 50	0.08 (≈ 0.141 µM)	0.08 (≈ 0.141 µM)	10 (≈ 17.6 µM)	> 50	> 50	> 50	10 (≈ 17.6 µM)	> 50			
COc1ccccc1[C@H](Cn1c(=O)n(C(C)(C)C(=O)N2CC(O)C2)c(=O)c2c(C)c(-n3nccn3)sc21)OC1CCOCC1 [Compound I-19, (R)-3-(1-(3-hydroxyazetidin-1-yl)-2-methyl-1-oxopropan-2-yl)-1-(2-(2-methoxyphenyl)-2-((tetrahydro-2H-pyran-4-yl)oxy)ethyl)-5-methyl-6-(2H-1,2,3-triazol-2-yl)thieno[2,3-d]pyrimidine-2,4(1H,3H)-dione]	10 to 40	10 to 40																	> 50	> 50	IC90 [2, 28]: > 50 µg/mL; IC90 [2, 29]: > 50 µg/mL; MIC [4, 30]: 2.1 to 4 µg/mL (≈ 3.36 to 6.4 µM); MIC [4, 31]: 1.01 to 2 µg/mL (≈ 1.62 to 3.2 µM); IC90 [5, 32]: > 50 µg/mL; IC90 [5, 33]: > 50 µg/mL; Concentration at 90% Inhibition Fm [6, 18]: B (compound concentration of 2.0 ppm at 90% inhibition of fungal pathogens); IC90 [6]: 2 µg/mL (≈ 3.2 µM); IC90 [7, 34]: 10 µg/mL (≈ 16 µM); IC90 [7, 35]: > 50 µg/mL; IC90 [8, 36]: > 50 µg/mL; IC90 [8, 37]: > 50 µg/mL; IC90 [9, 38]: 10 µg/mL (≈ 16 µM); IC90 [9, 39]: > 50 µg/mL
COc1ccc(F)cc1[C@H](Cn1c(=O)n(C(C)(C)C(=O)N2CCCCC2)c(=O)c2c(C)c(-n3nccn3)sc21)OC1CCOCC1 [Compound I-24, (R)-1-(2-(5-fluoro-2-methoxyphenyl)-2-((tetrahydro-2H-pyran-4-yl)oxy)ethyl)-5-methyl-3-(2-methyl-1-oxo-1-(piperidin-1-yl)propan-2-yl)-6-(2H-1,2,3-triazol-2-yl)thieno[2,3-d]pyrimidine-2,4(1H,3H)-dione]	10 to 40	10 to 40																	2 (≈ 3.05 µM)	10 (≈ 15.3 µM)	IC90 [2, 28]: 0.08 µg/mL (≈ 0.122 µM); IC90 [2, 29]: 0.08 µg/mL (≈ 0.122 µM); MIC [4, 30]: 0.25 to 1 µg/mL (≈ 0.382 to 1.53 µM); MIC [4, 31]: 0.25 to 1 µg/mL (≈ 0.382 to 1.53 µM); IC90 [5, 32]: 0.08 µg/mL (≈ 0.122 µM); IC90 [5, 33]: 0.08 µg/mL (≈ 0.122 µM); Concentration at 90% Inhibition Fm [6, 18]: AA (compound concentration of 0.08 ppm at 90% inhibition of fungal pathogens); IC90 [6]: 0.08 µg/mL (≈ 0.122 µM); IC90 [7, 34]: 0.08 µg/mL (≈ 0.122 µM); IC90 [7, 35]: 0.08 µg/mL (≈ 0.122 µM); IC90 [8, 36]: > 50 µg/mL; IC90 [8, 37]: > 50 µg/mL; IC90 [9, 38]: 0.4 µg/mL (≈ 0.611 µM); IC90 [9, 39]: 0.4 µg/mL (≈ 0.611 µM)
COc1ccc(F)cc1[C@H](Cn1c(=O)n(C(C)(C)C(N)=O)c(=O)c2c(C)c(-n3nccn3)sc21)OC1CCC(=O)CC1 [Compound I-31, (R)-2-(1-(2-(5-fluoro-2-methoxyphenyl)-2-((4-oxocyclo-hexyl)oxy)ethyl)-5-methyl-2,4-dioxo-6-(2H-1,2,3-triazol-2-yl)-1,4-dihydrothieno[2,3-d]pyrimidin-3(2H)-yl)-2-methylpropanamide]	5 to 10	5 to 10	1.1 to 2 (≈ 1.84 to 3.34 µM)	2.01 to 4 (≈ 3.36 to 6.68 µM)	> 50	> 50	2 (≈ 3.34 µM)	10 (≈ 16.7 µM)	10 (≈ 16.7 µM)	> 50	0.4 (≈ 0.668 µM)	0.4 (≈ 0.668 µM)	2 (≈ 3.34 µM)	2 (≈ 3.34 µM)	> 50	> 50	10 (≈ 16.7 µM)	> 50			

Further lines, with some results ahead:

IC50 ([3]; Table 2a) [nM]	IC50 ([3]; Table 2b, additional results) [nM]	MIC [4, 14] [µg/mL]	MIC [4, 15] [µg/mL]	SMILES	IC90 [1, 10] [µg/mL]	IC90 [1, 11] [µg/mL]	IC90 [2, 12] [µg/mL]	IC90 [2, 13] [µg/mL]	IC90 [5, 16] [µg/mL]	IC90 [5, 17] [µg/mL]	IC90 [6, 18] [µg/mL]	IC90 [6, 19] [µg/mL]	IC90 [7, 20] [µg/mL]	IC90 [7, 21] [µg/mL]	IC90 [8, 22] [µg/mL]	IC90 [8, 23] [µg/mL]	IC90 [9, 24] [µg/mL]	IC90 [9, 25] [µg/mL]	IC90 [1, 26] [µg/mL]	IC90 [1, 27] [µg/mL]	also measured
1 to 5	1 to 5	0.25 to 1 (≈ 0.419 to 1.68 µM)	0.25 to 1 (≈ 0.419 to 1.68 µM)	CCNC(=O)C(C)(C)n1c(=O)c2c(C)c(-n3nccn3)sc2n(C[C@H](OC2CCOCC2)c2ccccc2OC)c1=O [Compound I-15, (R)—N-ethyl-2-(1-(2-(2-methoxyphenyl)-2-((tetrahydro-2H-pyran-4-yl)oxy)ethyl)-5-methyl-2,4-dioxo-6-(2H-1,2,3-triazol-2-yl)-1,4-dihydro-thieno[2,3-d]pyrimidin-3(2H)-yl)-2-methylpropanamide]	> 50	> 50	10 (≈ 16.8 µM)	> 50	2 (≈ 3.35 µM)	10 (≈ 16.8 µM)	0.08 (≈ 0.134 µM)	0.08 (≈ 0.134 µM)	10 (≈ 16.8 µM)	> 50	> 50	> 50	10 (≈ 16.8 µM)	> 50			
10 to 40	10 to 40	2.1 to 4 (≈ 3.27 to 6.22 µM)	1.01 to 2 (≈ 1.57 to 3.11 µM)	COc1ccc(F)cc1[C@H](Cn1c(=O)n(C(C)(C)C(=O)N2CC(O)C2)c(=O)c2c(C)c(-n3nccn3)sc21)OC1CCOCC1 [Compound I-26, (R)-1-(2-(5-fluoro-2-methoxyphenyl)-2-((tetrahydro-2H-pyran-4-yl)oxy)ethyl)-3-(1-(3-hydroxyazetidin-1-yl)-2-methyl-1-oxopropan-2-yl)-5-methyl-6-(2H-1,2,3-triazol-2-yl)thieno[2,3-d]pyrimidine-2,4(1H,3H)-dione]	> 50	> 50	10 (≈ 15.6 µM)	> 50	10 (≈ 15.6 µM)	> 50	0.4 (≈ 0.622 µM)	0.4 (≈ 0.622 µM)	10 (≈ 15.6 µM)	> 50	> 50	> 50	2 (≈ 3.11 µM)	2 (≈ 3.11 µM)			
